Experimental data reported in patent US5081112A, “Method for treating hyperlipidemia” (Otsuka Pharmaceutical Factory Inc., priority 1986, dated 1992).
Like-named read-outs stand apart in the source and are kept apart here.

Key:
[1] = system: Triton WR-1339-induced hyperlipidemia in rat; test: antilipotropic effect in Triton WR-1339-induced hyperlipidemia in rat; assay type: in vivo, Wistar-strain male rats; settings: 50 mg/kg oral, vs control
Text: Wistar-strain male rats of 5-9 week age were used as test animals. One test group consisting of six (6) rats.
[a] is a determined value obtained from the control group, and
[b] is a determined value obtained from the test group).

[2] = system: biosynthetic pathway of cholesterol; test: inhibitory effect in biosynthetic pathway of cholesterol; assay type: biochemical; settings: 10^-4 M; rat liver microsomes and soluble fraction; 90 min, 100 µM
Method: Test for determining inhibitory effect in biosynthetic pathway of cholesterol
Each one of the test compounds was added to rat liver microsomes fraction (containing 0.2 mg of protein) and soluble fraction (containing 2 mg of protein), then the volume of the mixture was adjusted to 100 microliters by adding 0.1 M-potassium phosphate buffer solution (pH 7.4), then this mixture was incubated at 37° C. for 10 minutes.
After the incubation, the reaction was started by adding 200 microliters of a solution containing 1 mM ATP, 10 mM glucose-1-phosphate, 6 mM glutathione, 6 mM MgCl2, […], 0.25 mM […], 0.25 mM NADP, and 1 mM [1-^14 C] sodium acetate (3.0 mCi/mM).
The whole mixture was incubated at 37° C. for 90 minutes, then the reaction was terminated by adding […] of 15%-KOH (a 95% ethanol solution), next 2 mg of cholesterol was added thereto, saponified at 75° C. for 1 hour, and cholesterol was extracted with petroleum ether, the extract was concentrated to dryness. To the residue thus obtained was added with 2.5 ml of a mixture of acetone-diethyl ether (1:1) and 2.5 ml of 1%-digitonin (a 50% ethanol solution), then this solution was allowed to stand for 1 hour in cooling condition by using ice-water to precipitate cholesterol. The precipitate was washed with acetone, a mixture of acetonediethyl ether (1:1) and diethyl ether in this order, then the radioactivity of the residue was measured by using a liquid scintillation counter.
(§1) Control test was also conducted by the procedures similar to those mentioned above in the test group, except that each one of the test compounds was not used.
Inhibitory effect in biosynthetic pathway of cholesterol performed by each one of the test compounds was calculated, in terms of inhibitory ratio (%), from the formula on the basis of the radioactivity of the control group as follows: [formula] (wherein
[c] is a radioactivity of the control group, and
[d] is a radio activity of the test group).

[3] = system: acyl-CoA:cholesterol acyltransferase (ACAT); test: inhibitory effect in the enzymatic activities of acyl-CoA:cholesterol acyltransferase (ACAT); assay type: biochemical; settings: rat liver microsomes, 2 min; for Inhibitory effect to ACAT (inhibitory ratio), Table 5: head prints 10^14 M; for Inhibitory effect to ACAT (inhibitory ratio): 10^-4 M, 100 µM
Method: Test for determining inhibitory effect in the enzymatic activities of acyl-CoA:cholesterol acyltranferase (ACAT)
50 Microliters of each one of the test compounds was added to rat liver microsomes fraction (containing 0.4 mg of protein) of which volume was adjusted to 150 microliters by adding 0.15 M-potassium phosphate buffer solution (pH 7.4), then the mixture was incubated at 37° C. for 10 minutes. After the incubation, the reaction was started by adding 50 microliters of 0.15 M-potassium phosphate buffer solution (pH 7.4) containing 18 nM [1-^14 C] oleoyl-CoA (10 mCi/mM) and 0.6 mg BSA (bovine serum albumin) at 37° C. for 2 minutes. The reaction was terminated by adding 1 ml of ethanol, then 4 ml of n-hexane was added and shaken, then the n-hexane layer (upper layer) was concentrated to the volume of 3 ml under nitrogen gas stream, thus obtained cholesteryl oleate was isolated by means of a silica gel thin chromatography [developing solvent=petroleum ether: diethyl ether (95:5)] and the radioactivity was measured by using a liquid scintillation counter.
as §1
Inhibitory effect in the enzymatic activities of acyl-CoA:cholesterol acyltransferase (ACAT) performed by each one of the test compounds was calculated, in terms of inhibitory ratio (%), from the formula on the basis of the radioactivity of the control group as follows: [formula] (wherein
[e] is a radioactivity of the control group, and
[f] is a radioactivity of the test group).

[4] = system: Streptozotocin-induced diabetes in rat; test: serum lipids lowering effect to Streptozotocin-induced diabetes in rat; assay type: in vivo, Wistar-strain male rats; settings: 4 hours after 25 mg/kg oral, Streptozocin 100 mg/kg tail vein
Method: Test for determining serum lipids lowering effect to Streptozotocin-induceddiabetes in rat
Wistar-strain male rats of 7 week age were used as test animals. One test group consisting of six (6) rats. 100 Milligrams/kg of Streptozocin was administered to the tail vein of the test rat, then 4th day after the administration with Streptozocin, 25 mg/kg of each of the test compounds which was suspended in 0.5%-CMC-Na aqueous solution was orally administered to the rat. Similar to the test group, to each of six (6) rats in control group was administered with Streptozocin, and further orally administered with 0.5%-CMC-Na aqueous solution without containing each of the test compounds.
4 Hours after the administration of each of the test compounds, the blood sample was taken from each of the test rats, and serum triglycerids was measured by using a test reagent of Triglyceride G-Test Wako (manufacturedby Wako Pure Chemicals, Co., Ltd.).

[5] = system: plasma high density lipoprotein cholesterol (HDLC); test: increasing rate of plasma high density lipoprotein cholesterol (HDLC) concentration; assay type: in vivo, male Wistar rats; settings: 300 mg/kg/day oral for 2 days; rat; vs control
Method: Increasing rate (%) of plasma high density lipoportein cholesterol (HDLC) concentration which is performed by a carboxamide compound of the general formula (I) of the present invention was conducted as follows.
Seven-week-old male Wistar rats were used.
The test compound was orally administered for 2 days at a daily dose of 300 mg/kg body weight to each of six (6) rats in test group. The dosing vehicle was 0.5% sodium carboxylmethylcellulose solution, and the dosing volume was 5 ml/kg body weight.
Similar to the procedures taken to the rats in the test group, to each one of six (6) rats in control group was orally administered 0.5% sodium carboxymethylcelluose solution only.
On day 2, after fasting for 20 hours, blood was drawn from the jagular sinus with a heparinized syringe. Plasma was obtained by centrifugation.
Plasma HDLC was determined after precipitation of other lipid fraction with heparin and Ca^2+ by using HDL-C Kit-N (manufactured by Hihon Shoji Kabushiki Kaisha).
Increasing rate (%) of plasma HDLC concentration performed by a test compound was calculated from the formula as follows: [formula]

[6] = 24 hours after Triton WR-1339 (400 mg/kg, tail vein)
[7] = 48 hours after Triton WR-1339 (400 mg/kg, tail vein)
[8] = 24 hours after Triton WR-1339 (400 mg/kg, tail vein), read-out: lowering ratio of serum triglycerides, 24 hours after Triton WR-1339
[9] = 24 hours after Triton WR-1339 (400 mg/kg, tail vein), read-out: lowering ratio of total serum cholesterol, 24 hours after Triton WR-1339
[10] = 48 hours after Triton WR-1339 (400 mg/kg, tail vein), read-out: lowering ratio of serum triglycerides, 48 hours after Triton WR-1339
[11] = 48 hours after Triton WR-1339 (400 mg/kg, tail vein), read-out: lowering ratio of total serum cholesterol, 48 hours after Triton WR-1339

| Compound | Inhibitory ratio of cholesterol biosynthesis [2] | Inhibitory effect to ACAT (inhibitory ratio), Table 5 [3] | Inhibitory effect to ACAT (inhibitory ratio) [3] | other results |
| --- | --- | --- | --- | --- |
| 4-diethoxyphosphinoylmethyl-N-(4-bromo-2-cyanophenyl)benzamide [Test compound No. 71] | 56.6% | 79.2% |  | lowering ratio of serum triglycerides, 24 hours after Triton WR-1339 [1, 6]: 85.3%; lowering ratio of total serum cholesterol, 24 hours after Triton WR-1339 [1, 6]: 51.6%; lowering ratio of serum triglycerides, 48 hours after Triton WR-1339 [1, 7]: 95.9%; lowering ratio of total serum cholesterol, 48 hours after Triton WR-1339 [1, 7]: 67.9% |
| CCC(C)(Oc1ccc(C2(c3ccc(OC(C)(CC)C(=O)O)cc3)CCCCC2)cc1)C(=O)O (stereo not drawn) [Clinofibrate, reference compound] |  |  |  | inhibition in vivo at 50 mg/kg [1, 8]: 13.6%; inhibition in vivo at 50 mg/kg [1, 9]: 9.8%; inhibition in vivo at 50 mg/kg [1, 10]: 1.1%; inhibition in vivo at 50 mg/kg [1, 11]: 1.9%; Serum triglyceride [4]: 2,067 mg/dl |
| CCOP(=O)(Cc1ccc(C(=O)Nc2ccc(Br)cc2)cc1)OCC [compound 8] |  |  |  | inhibition in vivo at 50 mg/kg [1, 8]: 86.8%; inhibition in vivo at 50 mg/kg [1, 9]: 52.2%; inhibition in vivo at 50 mg/kg [1, 10]: 92.5%; inhibition in vivo at 50 mg/kg [1, 11]: 63.6%; Serum triglyceride [4]: 471 mg/dL |
| CCOP(=O)(Cc1ccc(C(=O)N(Cc2ccccc2)c2ccc([N+](=O)[O-])cc2)cc1)OCC [compound 10] | 75.6% |  | 69.4% | inhibition in vivo at 50 mg/kg [1, 8]: 26.9%; inhibition in vivo at 50 mg/kg [1, 9]: 0%; inhibition in vivo at 50 mg/kg [1, 10]: 68.7%; inhibition in vivo at 50 mg/kg [1, 11]: 16.1% |
| CC(C)OP(=O)(Cc1ccc(C(=O)NCCc2ccccc2)cc1)OC(C)C [compound 11] | 67.4% | 83.3% |  | inhibition in vivo at 50 mg/kg [1, 8]: 0%; inhibition in vivo at 50 mg/kg [1, 9]: 13.5%; inhibition in vivo at 50 mg/kg [1, 10]: 56.8%; inhibition in vivo at 50 mg/kg [1, 11]: 32.6% |
| CCOP(=O)(Cc1ccc(C(=O)Nc2ccc(C)cc2)cc1)OCC [compound 22] | 32.2% |  |  | inhibition in vivo at 50 mg/kg [1, 8]: 38.6%; inhibition in vivo at 50 mg/kg [1, 9]: 6.9%; inhibition in vivo at 50 mg/kg [1, 10]: 28.1%; inhibition in vivo at 50 mg/kg [1, 11]: 29% |
| CCCCCCNC(=O)c1ccc(C(C)P(=O)(OC(C)C)OC(C)C)cc1 (stereo not drawn) [compound 26] | 67.4% | 88.9% |  |  |
| CCOP(=O)(Cc1ccc(C(=O)Nc2cccc(C(F)(F)F)c2)cc1)OCC [compound 27] | 36.2% | 39.5% |  |  |
| O=C(Nc1c(Cl)cccc1Cl)c1ccc(CP(=O)(Oc2ccccc2)Oc2ccccc2)cc1 [compound 29] | 35.8% | 73.9% |  |  |
| CCOP(=O)(Cc1ccc(C(=O)NCCC(c2ccccc2)c2ccccc2)cc1)OCC [compound 31] | 65.4% | 87.7% |  |  |
| CCOP(=O)(Cc1ccc(C(=O)N(c2ccccc2)C(C)C)cc1)OCC [compound 32] | 36.4% | 20.1% |  |  |
| CCOP(=O)(Cc1ccc(C(=O)N(c2ccccc2)c2ccccc2)cc1)OCC [compound 36] | 61.1% | 63.1% |  |  |
| CCOP(=O)(Cc1ccc(C(=O)N(Cc2ccccc2F)c2ccccc2)cc1)OCC [compound 41] | 84.2% |  | 84.0% |  |
| CCOP(=O)(Cc1ccc(C(=O)N(Cc2ccccc2)c2cccc(C(F)(F)F)c2)cc1)OCC [compound 50] | 78.2% |  | 84.8% |  |
| CCOP(=O)(Cc1ccc(C(=O)N(Cc2ccccc2)c2cc(OC)c(OC)c(OC)c2)cc1)OCC [compound 52] | 65.6% |  | 60.5% |  |
| CCOP(=O)(Cc1ccc(C(=O)N2CCN(c3ccc(Cl)cc3)CC2)cc1)OCC [compound 58] | 58.4% |  | 56.6% |  |
| CCCCCCNC(=O)c1ccc(C(C)P(=O)(OCC)OCC)cc1 (stereo not drawn) [compound 63] | 58.9% |  | 88.9% |  |
| CCOP(=O)(Cc1cccc(C(=O)Nc2ccccc2)c1)OCC [compound 64] |  | 37.6% |  |  |
| CCOP(=O)(Cc1ccc(C(=O)N(Cc2ccccc2)c2ccccc2)cc1)OCC [compound 65] |  |  | 87.7% |  |
| CCOP(=O)(Cc1ccc(C(=O)Nc2ccccc2C(=O)O)cc1)OCC [compound 66] |  |  | 26.0% |  |
| CCOP(=O)(Cc1ccc(C(=S)Nc2ccccc2)cc1)OCC [compound 70] |  |  | 39.4% |  |
| CCOP(=O)(Cc1ccc(C(=O)Nc2ccc(Br)cc2C#N)cc1)OCC [compound 71] |  |  |  | Increasing rate (%) of high density lipids concentration in the serum (plasma HDLC) [5]: 193% |
| CCOP(=O)(Cc1ccc(C(=O)Nc2ccc(Cl)cc2C#N)cc1)OCC [compound 72] |  |  |  | Increasing rate (%) of high density lipids concentration in the serum (plasma HDLC) [5]: 196% |
| CCOP(=O)(Cc1ccc(C(=O)Nc2ccc(C#N)cc2Cl)cc1)OCC [compound 73] |  |  |  | Increasing rate (%) of high density lipids concentration in the serum (plasma HDLC) [5]: 187% |
| CCOP(=O)(Cc1ccc(C(=O)Nc2ccc(I)cc2C#N)cc1)OCC [compound 74] |  |  |  | Increasing rate (%) of high density lipids concentration in the serum (plasma HDLC) [5]: 187% |
| CCOP(=O)(Cc1ccc(C(=O)Nc2ccc(C#N)cc2Br)cc1)OCC [compound 75] |  |  |  | Increasing rate (%) of high density lipids concentration in the serum (plasma HDLC) [5]: 222% |
| CCOP(=O)(Cc1ccc(C(=O)Nc2ccc(Br)c(C#N)c2)cc1)OCC [compound 76] |  |  |  | Increasing rate (%) of high density lipids concentration in the serum (plasma HDLC) [5]: 111% |
| CCOP(=O)(Cc1ccc(C(=O)Nc2ccc(C#N)cc2I)cc1)OCC [compound 77] |  |  |  | Increasing rate (%) of high density lipids concentration in the serum (plasma HDLC) [5]: 184% |
